Data reported in PubChem BioAssay (NCI).
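Step 1: Grow cells in 96-well plates. Step 2: Expose to compound for 48 hours at 5 concentrations. Step 3: Interpolate endpoints linearly; if unreached, use highest concentration. At the GI50, growth is halved. TGI is the concentration that stops growth completely.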

Experiments:
Assay in all cases: inhibition of tumour cell growth, NCI panel, 48 h
BT-549 breast = tested on: BT-549 breast
MCF7 breast = tested on: MCF7 breast
MDA-MB-435 = tested on: MDA-MB-435
DU-145 prostate = tested on: DU-145 prostate
MDA-MB-231 breast = tested on: MDA-MB-231 breast
DLD-1 colon = tested on: DLD-1 colon
DMS 273 small cell lung = tested on: DMS 273 small cell lung
LXFL 529 NSCLC = tested on: LXFL 529 NSCLC
DMS 114 small cell lung = tested on: DMS 114 small cell lung

## COc1cc2c(c(Br)c1N)-c1cc(Br)c(N)cc1C2=O
BT-549 breast
  GI50: > 24.8 µM
  TGI: > 100 µM
MCF7 breast
  GI50: 0.131 µM
  TGI: > 100 µM
MDA-MB-435
  GI50: > 100 µM
  TGI: > 100 µM
DU-145 prostate
  GI50: 59.8 µM
  TGI: > 100 µM
MDA-MB-231 breast
  GI50: 3.07 µM
  TGI: > 81 µM

## CCOC(=O)c1c(-c2ccccc2)[nH]c2ccccc2c1=O
MCF7 breast
  TGI: > 100 µM
DU-145 prostate
  TGI: > 100 µM

## O=C(O)Cc1ccccc1
BT-549 breast
  TGI: > 2000 µM
MCF7 breast
  TGI: > 2000 µM
MDA-MB-435
  TGI: > 2000 µM
DU-145 prostate
  GI50: > 1000 µM
  TGI: > 1000 µM
MDA-MB-231 breast
  GI50: > 1000 µM
  TGI: > 2000 µM

## Cn1cccc1C1CC(=O)N(CCC[Se]C#N)C1=O (centres undefined)
MCF7 breast
  GI50: 2.85 µM
  TGI: 14.6 µM
MDA-MB-435
  GI50: 1.78 µM
  TGI: 3.48 µM
DU-145 prostate
  GI50: 1.81 µM
  TGI: 3.78 µM

## O=C(Nc1ccc(Cl)cc1)C(=O)C1=C(O)c2ccccc2OC1
BT-549 breast
  TGI: > 100 µM
MCF7 breast
  TGI: > 100 µM
MDA-MB-435
  TGI: > 100 µM
DU-145 prostate
  TGI: > 100 µM
MDA-MB-231 breast
  TGI: > 100 µM

## CC[C@]12C=CCN3CC[C@]4(C(=C(C(=O)OC)C1)Nc1ccccc14)[C@@H]32
BT-549 breast
  GI50: 8.71 µM
  TGI: 21.6 µM
MCF7 breast
  GI50: 3.33 µM
  TGI: 13.1 µM
MDA-MB-435
  GI50: 2.06 µM
  TGI: 5.63 µM
DU-145 prostate
  GI50: 3.81 µM
  TGI: 14.5 µM
MDA-MB-231 breast
  GI50: 3.19 µM
  TGI: 13.3 µM

## COC(=O)Oc1nn(C(=O)OC)c(=O)c2ccccc12 (tested in a mixture with another compound)
MCF7 breast
  TGI: > 100 µM
MDA-MB-435
  TGI: > 100 µM
DU-145 prostate
  TGI: > 100 µM
MDA-MB-231 breast
  TGI: > 100 µM

## CCOC(=O)C12CN(C34CC5CC(CC(C5)C3)C4)CC(C(=O)OCC)(C1=O)C(c1ccccc1)OC2c1ccccc1 (centres undefined)
DLD-1 colon
  TGI: > 100 µM
DMS 273 small cell lung
  TGI: > 100 µM
LXFL 529 NSCLC
  TGI: > 100 µM
DMS 114 small cell lung
  TGI: > 100 µM

## COC(=O)C1(C)CCc2c(ccc3ccccc23)C1=O (centres undefined)
BT-549 breast
  TGI: 64 µM
MCF7 breast
  TGI: 81.2 µM
MDA-MB-435
  TGI: > 100 µM
DU-145 prostate
  TGI: > 100 µM
MDA-MB-231 breast
  TGI: > 100 µM

## CC1=C(C(=O)Nc2cc(F)c(F)cc2F)C(c2cccc([N+](=O)[O-])c2)C(C(=O)Nc2ccccc2C(F)(F)F)=C(C)N1 (centres undefined)
DLD-1 colon
  TGI: 94.7 µM
LXFL 529 NSCLC
  TGI: 53.1 µM
DMS 114 small cell lung
  TGI: 57 µM

## O=C(/C=C/c1cccnc1)/C=C/c1cccnc1
BT-549 breast
  GI50: 1.73 µM
  TGI: 4.62 µM
MCF7 breast
  GI50: 0.379 µM
  TGI: 1.84 µM
MDA-MB-435
  GI50: 1.78 µM
  TGI: 4.84 µM
DU-145 prostate
  GI50: 2.57 µM
  TGI: 6.45 µM
MDA-MB-231 breast
  GI50: 2.05 µM
  TGI: 5.8 µM

## COc1ccc2c(c1)CC[C@@H]1C2CC[C@]2(C)C(=O)N(C)C(=O)CC12 (some centres undefined)
BT-549 breast
  TGI: > 100 µM
MCF7 breast
  TGI: > 100 µM
MDA-MB-435
  TGI: > 100 µM
DU-145 prostate
  TGI: > 100 µM
MDA-MB-231 breast
  TGI: > 100 µM

## Cc1ccc(S(=O)(=O)OC(C=O)C(O)C(O)COC(c2ccccc2)(c2ccccc2)c2ccccc2)cc1 (centres undefined)
DMS 273 small cell lung
  TGI: 37.9 µM
LXFL 529 NSCLC
  TGI: 25.7 µM
DMS 114 small cell lung
  TGI: 33.8 µM

## NC(=NCc1ccccc1)N/N=C\c1ccnc2ccccc12
BT-549 breast
  TGI: 18.6 µM
MCF7 breast
  TGI: 25.5 µM
MDA-MB-435
  TGI: 23.9 µM
DU-145 prostate
  TGI: 32.3 µM
MDA-MB-231 breast
  TGI: 28.2 µM

## COc1cc(-c2cn(-c3ccc(Cl)cc3)c(=O)n2-c2ccccc2)cc(OC)c1OC
BT-549 breast
  GI50: > 92.1 µM
  TGI: > 100 µM
MCF7 breast
  GI50: > 53.5 µM
  TGI: > 100 µM
MDA-MB-435
  GI50: > 100 µM
  TGI: > 100 µM
DU-145 prostate
  GI50: > 100 µM
  TGI: > 100 µM
MDA-MB-231 breast
  GI50: 32.9 µM
  TGI: > 100 µM

## CCN=C(N)CSS(=O)(=O)O
BT-549 breast
  TGI: > 100 µM
MCF7 breast
  TGI: > 100 µM
MDA-MB-435
  TGI: > 100 µM
DU-145 prostate
  TGI: > 100 µM
MDA-MB-231 breast
  TGI: > 100 µM
